The source of these data is ChEMBL document CHEMBL1149379, “Pyrrolo(iso)quinoline derivatives as 5-HT(2C) receptor agonists” (Bioorg Med Chem Lett, 2006).

The structures appear in SMILES notation. Active and inactive are the calls of the source. No cut-off for these calls is given here. Where only a bound is given, the exact number is not on record here.

Experiment [1] concerns the target T1, 5-hydroxytryptamine receptor 2C (Homo sapiens) (UniProt P28335).
T1 sequence (whole entry): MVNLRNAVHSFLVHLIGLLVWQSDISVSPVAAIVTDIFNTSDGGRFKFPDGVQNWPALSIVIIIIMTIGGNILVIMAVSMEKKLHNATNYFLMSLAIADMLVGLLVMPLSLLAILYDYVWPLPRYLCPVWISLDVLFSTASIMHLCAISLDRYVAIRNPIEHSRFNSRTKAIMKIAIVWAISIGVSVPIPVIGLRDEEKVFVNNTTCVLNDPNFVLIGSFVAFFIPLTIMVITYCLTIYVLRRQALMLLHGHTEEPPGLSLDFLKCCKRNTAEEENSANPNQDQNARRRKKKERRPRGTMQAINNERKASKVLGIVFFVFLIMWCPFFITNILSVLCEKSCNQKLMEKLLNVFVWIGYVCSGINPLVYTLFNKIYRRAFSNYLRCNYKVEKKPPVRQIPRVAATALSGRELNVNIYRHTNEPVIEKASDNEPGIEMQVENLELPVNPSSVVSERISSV
The experiment is described as follows: Binding to human 5HT2C receptor expressed in CHO cells relative to 5HT. The experiment is classed as cell-based.

Experiment [2] deals with T2, 5-hydroxytryptamine receptor 2B (Homo sapiens, UniProt P41595). Briefly: Binding to human 5HT2B receptor expressed in CHO cells relative to 5HT. Type of experiment: cell-based.
The target in experiment [3] is T2, 5-hydroxytryptamine receptor 2B. The experiment is described as follows: Binding to human 5HT2B receptor expressed in CHO cells. Type of experiment: cell-based.
The target of experiment [4] is T3, 5-hydroxytryptamine receptor 2C (Homo sapiens, UniProt P28335).
T3 sequence (P28335 whole entry): T1 sequence (whole entry)
The experiment is described as follows: Displacement of [3H]5-HT from human 5HT2C.

Experiment [5] deals with T3, 5-hydroxytryptamine receptor 2C. The experiment is described as follows: Binding to human 5HT2C receptor expressed in CHO cells. The experiment is classed as cell-based.
Experiment [6] addresses T4, 5-hydroxytryptamine receptor 2A (Homo sapiens, UniProt P28223). The experiment is described as follows: Binding to human 5HT2A receptor expressed in CHO cells relative to 5HT. Type of experiment: cell-based.
In experiment [7] the target is T2, 5-hydroxytryptamine receptor 2B. Briefly: Displacement of [3H]5-HT from human 5HT2B.
Experiment [8] deals with T4, 5-hydroxytryptamine receptor 2A. Briefly: Binding to human 5HT2A receptor expressed in CHO cells. Type of experiment: cell-based.
The target is the same in experiment [9]. Briefly: Displacement of [125I]DOI from human 5HT2A.
Experiment [10] has as its system Rattus norvegicus. Briefly: Reduction in food intake in food-deprived rats after 4 hrs of administration of 3 mg/kg. Also on record: dose 3 mg/kg. Type of experiment: functional, organism-based.
The species named for experiment [11] is Rattus norvegicus. The experiment is described as follows: Blocking of anorectic effect in rats pre-treated with SB-242084. The experiment is classed as functional, organism-based.

T2 sequence (P41595 whole entry): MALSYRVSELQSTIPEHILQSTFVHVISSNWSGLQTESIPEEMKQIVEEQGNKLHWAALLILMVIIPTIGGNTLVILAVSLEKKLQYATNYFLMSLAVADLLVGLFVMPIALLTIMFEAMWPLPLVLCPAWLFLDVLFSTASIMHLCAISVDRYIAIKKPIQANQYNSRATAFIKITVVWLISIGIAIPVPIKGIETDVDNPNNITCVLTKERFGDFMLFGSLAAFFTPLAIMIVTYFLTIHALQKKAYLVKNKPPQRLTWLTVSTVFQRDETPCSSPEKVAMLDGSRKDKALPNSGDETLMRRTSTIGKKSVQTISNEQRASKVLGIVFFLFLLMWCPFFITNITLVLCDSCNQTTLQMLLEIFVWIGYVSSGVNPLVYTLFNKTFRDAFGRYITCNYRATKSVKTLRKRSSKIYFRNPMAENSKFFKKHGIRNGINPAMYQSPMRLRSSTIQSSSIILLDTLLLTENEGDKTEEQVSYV
T4 sequence (P28223 whole entry): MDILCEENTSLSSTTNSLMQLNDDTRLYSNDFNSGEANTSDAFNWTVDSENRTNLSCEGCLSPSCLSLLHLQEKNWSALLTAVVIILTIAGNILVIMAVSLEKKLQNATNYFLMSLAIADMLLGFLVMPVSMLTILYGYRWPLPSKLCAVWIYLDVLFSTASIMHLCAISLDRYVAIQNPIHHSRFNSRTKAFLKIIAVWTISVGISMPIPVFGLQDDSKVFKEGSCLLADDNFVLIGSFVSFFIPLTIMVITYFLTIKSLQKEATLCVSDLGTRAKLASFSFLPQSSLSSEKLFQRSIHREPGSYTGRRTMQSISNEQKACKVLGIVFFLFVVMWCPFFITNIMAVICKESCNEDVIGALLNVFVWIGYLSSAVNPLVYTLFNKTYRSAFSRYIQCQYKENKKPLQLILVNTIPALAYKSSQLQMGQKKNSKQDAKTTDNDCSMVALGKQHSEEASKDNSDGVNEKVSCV

For `C[C@@H](Cn1ccc2ccc3ncccc3c21)NCC1CCCCC1`, the Efficacy in experiment [1] turned out to be 88%; in experiment [2], 67%; in experiment [6], 32%. Further, the values for the EC50 in [3], in [5] and in experiment [8] were 128 nM, 348 nM and more than 1000 nM, respectively. Besides, the Ki in experiment [4] turned out to be 78 nM; in experiment [7], 624 nM; in [9] it was 927 nM.
In the case of `C[C@H](N)Cn1ccc2ccc3cccnc3c21`, the Efficacy was 39% in [1], 60% in experiment [2] and 41% in experiment [6]. Also, the EC50 in experiment [3] amounted to 45 nM; in experiment [5], 97 nM; in experiment [8] it was 446 nM. Besides, the Ki in [4] was found to be 27 nM; in experiment [7] it was 115 nM; in [9], 229 nM.
In the case of `C[C@@H](Cn1ccc2ccc3ncccc3c21)NCc1ccc2c(c1)OCO2`, the Efficacy in experiment [1] was determined as 98%; in [2], 71%; in experiment [6] it was 69%. Besides, the figures for the EC50 in experiment [3], in experiment [5] and in experiment [8] were 20 nM, 42 nM and 359 nM, respectively. Also, the Ki in experiment [4] stood at 16 nM; in [7], 138 nM; in experiment [9], 398 nM.
`C[C@H](N)Cn1ccc2ccc3cnccc3c21`: the Efficacy is 93% in experiment [1], 70% in experiment [2] and 63% in experiment [6]. The figures for the EC50 in [3], in experiment [5] and in [8] were 152 nM, 297 nM and more than 1000 nM, respectively. The Ki is 72 nM in [4], 778 nM in [7] and 1040 nM in [9].
On to `C[C@H](N)Cn1ccc2cc(F)c(Cl)cc21`, for which the values for the Efficacy in [1], in experiment [2] and in experiment [6] were 93%, 71% and 72%, respectively.
Regarding `COc1ccccc1CN[C@@H](C)Cn1ccc2ccc3ncccc3c21`, the values for the Efficacy in experiment [1], in experiment [2] and in experiment [6] were 77%, 41% and 24%, respectively. For the same compound, the results for the EC50 in experiment [3], in experiment [5] and in experiment [8] were 462 nM, 551 nM and more than 1000 nM, respectively. The values for the Ki in experiment [4], in experiment [7] and in experiment [9] were 168 nM, 883 nM and 1570 nM, respectively.
In experiment [6], `NCCc1c[nH]c2ccc(O)cc12` registered an Efficacy of 98%.
For the compound `C[C@H](N)Cn1ccc2ccc3ccncc3c21`, the Efficacy came out at 98% in experiment [1], 67% in [2] and 67% in [6]. Moreover, the results for the EC50 in experiment [3], in experiment [5] and in experiment [8] were 62 nM, 73 nM and 473 nM, respectively. The Ki was 37 nM in experiment [4], 210 nM in [7] and 230 nM in [9].
Turning to `C[C@@H](Cn1ccc2ccc3ncccc3c21)NCc1ccc2ccccc2c1`, the Efficacy came out at 99% in experiment [1], 76% in experiment [2] and 56% in experiment [6]. The values for the EC50 in experiment [3], in [5] and in experiment [8] were 27 nM, 52 nM and 222 nM, respectively. The Ki was 16 nM in experiment [4], 136 nM in experiment [7] and 181 nM in experiment [9].
Take `Cc1ccccc1CN[C@@H](C)Cn1ccc2ccc3ncccc3c21`: the Efficacy in [1] was found to be 87%; in experiment [2] it was 64%; in [6], 49%. In addition, the EC50 is 128 nM in experiment [3], 219 nM in [5] and more than 1000 nM in [8]. In addition, the inhibitory constant (Ki) in experiment [4] turned out to be 171 nM; in [7] it was 739 nM; in experiment [9], 1680 nM.
Turning to `C[C@@H](Cn1ccc2ccc3ncccc3c21)NCc1ccccc1`, the Efficacy in [1] is 86%; in experiment [2], 70%; in [6] it was 39%. The figures for the EC50 in experiment [3], in experiment [5] and in experiment [8] were 97 nM, 200 nM and more than 1000 nM, respectively. In addition, the figures for the Ki in experiment [4], in experiment [7] and in experiment [9] were 77 nM, 515 nM and 842 nM, respectively.
With `C=CCN[C@@H](C)Cn1ccc2ccc3ncccc3c21`, the figures for the Efficacy in [1], in [2] and in experiment [6] were 92%, 70% and 54%, respectively. Besides, the EC50 in [3] worked out at 91 nM; in experiment [5], 257 nM; in [8], 777 nM. In addition, the values for the inhibitory constant (Ki) in experiment [4], in experiment [7] and in [9] were 86 nM, 455 nM and 1160 nM, respectively.
For `Clc1cccc(N2CCNCC2)c1`, the Efficacy in experiment [1] is 83%; in experiment [2], 33%; in [6] it was 41%.
Turning to `CCN[C@@H](C)Cc1cccc(C(F)(F)F)c1`, the result with Rattus norvegicus [10] was Active.
For `C[C@H](N)Cn1ccc2ccc3ncccc3c21`, in the experiment on Rattus norvegicus [10], the outcome was Active. Also, the Efficacy was found to be 99% in experiment [1], 65% in experiment [2] and 88% in experiment [6]. Moreover, the EC50 in [3] is 1.1 nM; in experiment [5] it was 2.9 nM; in experiment [8], 32 nM. The Ki in [4] came to 1.6 nM; in experiment [9] it was 31 nM. Also, the Activity result in the experiment listed under Rattus norvegicus [11] is “Dose-dependent effect”.
Consider `C[C@H](N)Cn1ccc2cc(Cl)c3ncccc3c21`, for which the Efficacy worked out at 101% in experiment [1], 61% in experiment [2] and 85% in experiment [6]. The half-maximal effective concentration (EC50) was 2.1 nM in [3], 6.9 nM in [5] and 36 nM in [8]. Besides, the figures for the Ki in [4], in [7] and in experiment [9] were 2.4 nM, 18 nM and 29 nM, respectively.
For `C[C@@H](Cn1ccc2ccc3ncccc3c21)NCc1ccccc1Cl`, the Efficacy was found to be 95% in experiment [1], 72% in experiment [2] and 58% in experiment [6]. Also, the EC50 stood at 44 nM in experiment [3], 74 nM in experiment [5] and 638 nM in [8]. The Ki in experiment [4] came to 39 nM; in experiment [7] it was 380 nM; in [9], 674 nM.
